According to patent US12258355B2, “Probes for imaging huntingtin protein” (CHDI Foundation, Inc., priority 2014, dated 2025):

Biological target: T1, Q46 protein aggregates (Homo sapiens, UniProt P42858)
T1 construct: fused on or other part: GST at the N-terminus, cut off with thrombin before the test to start aggregation; The wells held aggregated Q46 without GST
Assay: Q46 radioligand binding assay (RBA)
Details: 10 nM ligand [3H3]MK-3328
Protocol: Q46 Radioligand Binding Assay
For radioligand binding assays (RBA) GST-Q46 protein was generated based on a previous publication (Scherzinger et al. Cell, Vol. 90, 549-558, Aug. 8, 1997). For experiments 33 μM GST-Q46 was incubated with 150 μg/mL thrombin in assay buffer (150 mM NaCl, 50 mM Tris pH 8.0) and 2 mM CaCl2 for 16 hours at 37° C. Aggregated Q46 was pelleted by centrifugation for 5 minutes at 13,000 rpm in a bench top centrifuge and re-dissolved in the same volume of assay buffer. Test compounds were prepared by titration in DMSO at 11 concentrations from 33 μM to 1 nM. For the RBA, Q46 protein aggregates and test compounds were pre-incubated in assay buffer for 20 minutes at room temperature, in 140 μL/well in a 96-well plate (pp, round bottom). Then, ligand was added in 10 μL/well and incubated for 60 minutes at 37° C. Final assay concentrations were 1 μM to 30 pM test compound, 5 μM Q46 protein (equivalent monomer concentration) and 10 nM ligand [^3H3]MK-3328 (Harrision et al., ACS Med. Chem. Lett., 2 (2011), pp 498-502). Samples were transferred onto GF/B filter plates and washed 2× with 200 μL PBS using a Filtermate Harvester. After drying filter plates for 1 hour at 37° C., the back of the plates were sealed with foil and 30 μL/well scintillation fluid (Packard MicroScint 40) added, incubated for 15 minutes in the dark and counted in a TopCount reader. For analysis, replicate data from independent assay plates were normalized towards 0% and 100% inhibition using control wells of vehicle (0% inhibition) and 3 μM unlabelled MK-3328 (100% inhibition). IC50 values were determined with a sigmoidal inhibition model with four variables (top, bottom, slope, IC50) in a global fit using the normalized replicate data.

T1 sequence (P42858 with tags, fused parts or gaps with the stated changes, form open): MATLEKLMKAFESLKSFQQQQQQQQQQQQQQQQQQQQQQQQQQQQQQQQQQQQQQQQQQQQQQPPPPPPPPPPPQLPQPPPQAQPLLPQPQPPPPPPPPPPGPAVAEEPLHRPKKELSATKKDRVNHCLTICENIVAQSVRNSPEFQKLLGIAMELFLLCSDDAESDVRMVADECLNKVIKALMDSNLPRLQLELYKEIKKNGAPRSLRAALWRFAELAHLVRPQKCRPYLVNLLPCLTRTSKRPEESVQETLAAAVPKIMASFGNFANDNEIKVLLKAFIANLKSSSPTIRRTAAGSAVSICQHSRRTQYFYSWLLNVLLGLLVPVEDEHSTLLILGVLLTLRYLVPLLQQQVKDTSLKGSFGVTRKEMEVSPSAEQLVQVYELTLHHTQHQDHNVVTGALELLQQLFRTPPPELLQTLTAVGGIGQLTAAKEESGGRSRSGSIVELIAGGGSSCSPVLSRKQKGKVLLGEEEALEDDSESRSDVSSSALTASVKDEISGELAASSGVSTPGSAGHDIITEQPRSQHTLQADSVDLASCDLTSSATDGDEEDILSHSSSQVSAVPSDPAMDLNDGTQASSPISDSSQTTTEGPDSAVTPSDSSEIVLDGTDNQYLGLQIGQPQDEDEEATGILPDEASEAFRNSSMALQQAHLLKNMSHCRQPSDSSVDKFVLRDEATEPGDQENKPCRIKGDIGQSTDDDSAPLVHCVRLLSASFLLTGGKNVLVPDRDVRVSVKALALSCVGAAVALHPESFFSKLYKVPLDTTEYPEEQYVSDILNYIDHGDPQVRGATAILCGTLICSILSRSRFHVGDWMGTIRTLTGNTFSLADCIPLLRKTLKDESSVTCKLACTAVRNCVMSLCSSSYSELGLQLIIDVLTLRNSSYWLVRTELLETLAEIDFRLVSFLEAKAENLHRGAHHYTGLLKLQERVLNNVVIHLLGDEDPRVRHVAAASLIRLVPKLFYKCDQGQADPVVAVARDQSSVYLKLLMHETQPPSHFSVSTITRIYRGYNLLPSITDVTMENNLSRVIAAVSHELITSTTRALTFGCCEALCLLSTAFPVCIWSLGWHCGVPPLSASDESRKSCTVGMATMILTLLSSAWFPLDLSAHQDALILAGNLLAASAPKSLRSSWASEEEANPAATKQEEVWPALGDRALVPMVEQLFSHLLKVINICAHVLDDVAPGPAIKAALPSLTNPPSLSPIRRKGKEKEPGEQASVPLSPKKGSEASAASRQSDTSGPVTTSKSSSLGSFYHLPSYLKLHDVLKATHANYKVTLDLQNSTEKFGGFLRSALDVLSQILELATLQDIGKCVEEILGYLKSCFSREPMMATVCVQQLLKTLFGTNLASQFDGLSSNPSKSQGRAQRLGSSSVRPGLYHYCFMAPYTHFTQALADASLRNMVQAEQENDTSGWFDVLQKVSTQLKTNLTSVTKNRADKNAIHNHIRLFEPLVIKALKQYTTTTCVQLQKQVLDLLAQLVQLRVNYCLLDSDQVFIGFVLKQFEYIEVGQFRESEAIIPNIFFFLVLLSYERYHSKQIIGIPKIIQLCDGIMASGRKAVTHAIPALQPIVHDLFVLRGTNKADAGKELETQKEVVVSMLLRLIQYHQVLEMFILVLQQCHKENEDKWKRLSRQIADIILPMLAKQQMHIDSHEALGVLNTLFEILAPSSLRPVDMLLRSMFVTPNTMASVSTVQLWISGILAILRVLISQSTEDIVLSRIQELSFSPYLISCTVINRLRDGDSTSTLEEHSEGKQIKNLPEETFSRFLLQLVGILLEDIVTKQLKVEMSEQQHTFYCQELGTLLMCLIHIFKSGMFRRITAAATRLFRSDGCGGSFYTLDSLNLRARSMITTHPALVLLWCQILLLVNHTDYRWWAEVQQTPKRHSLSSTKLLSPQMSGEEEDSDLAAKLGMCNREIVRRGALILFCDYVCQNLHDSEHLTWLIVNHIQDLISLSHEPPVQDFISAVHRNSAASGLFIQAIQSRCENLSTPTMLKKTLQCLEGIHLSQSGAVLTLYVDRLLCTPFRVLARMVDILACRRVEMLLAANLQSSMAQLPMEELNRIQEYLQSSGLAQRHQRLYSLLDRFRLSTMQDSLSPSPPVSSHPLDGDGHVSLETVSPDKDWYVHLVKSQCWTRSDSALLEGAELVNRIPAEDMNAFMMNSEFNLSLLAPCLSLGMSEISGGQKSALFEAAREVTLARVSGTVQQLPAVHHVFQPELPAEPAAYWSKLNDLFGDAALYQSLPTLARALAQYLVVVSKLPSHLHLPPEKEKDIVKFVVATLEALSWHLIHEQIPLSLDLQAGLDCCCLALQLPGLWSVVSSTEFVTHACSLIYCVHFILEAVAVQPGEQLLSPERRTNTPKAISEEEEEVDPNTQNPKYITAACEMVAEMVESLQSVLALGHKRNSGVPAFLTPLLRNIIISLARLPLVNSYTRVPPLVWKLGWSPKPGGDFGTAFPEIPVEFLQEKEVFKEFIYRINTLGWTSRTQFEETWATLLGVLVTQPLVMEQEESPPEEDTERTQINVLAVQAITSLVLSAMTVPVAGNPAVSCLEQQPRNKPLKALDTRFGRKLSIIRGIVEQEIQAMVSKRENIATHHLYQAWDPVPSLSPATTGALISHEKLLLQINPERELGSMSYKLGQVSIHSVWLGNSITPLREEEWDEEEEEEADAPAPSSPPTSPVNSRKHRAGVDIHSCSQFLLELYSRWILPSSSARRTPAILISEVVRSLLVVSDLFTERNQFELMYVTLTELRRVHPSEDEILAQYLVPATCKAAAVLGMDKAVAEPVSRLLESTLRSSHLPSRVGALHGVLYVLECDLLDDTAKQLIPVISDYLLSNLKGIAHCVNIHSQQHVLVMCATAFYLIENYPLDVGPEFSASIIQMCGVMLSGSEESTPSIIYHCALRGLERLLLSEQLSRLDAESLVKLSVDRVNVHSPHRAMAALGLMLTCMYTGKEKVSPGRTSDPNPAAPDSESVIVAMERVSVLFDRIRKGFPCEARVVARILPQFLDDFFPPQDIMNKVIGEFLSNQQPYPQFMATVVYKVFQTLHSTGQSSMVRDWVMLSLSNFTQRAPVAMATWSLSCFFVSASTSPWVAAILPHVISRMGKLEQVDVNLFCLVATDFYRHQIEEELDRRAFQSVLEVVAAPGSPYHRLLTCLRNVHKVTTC

| SMILES | IC50 [nM] |
| --- | --- |
| COc1ccc(COc2cnc3oc(-c4cccnc4)nc3c2)[n+]([O-])c1 [5-methoxy-2-({[2-(pyridin-3-yl)-[1,3]oxazolo[5,4-b]pyridin-6-yl]oxy}methyl)pyridin-1-ium-1-olate] | < 100 |
| N#Cc1cnccc1-c1cc2cc(Oc3cccnc3)ccc2o1 [4-[5-(pyridin-3-yloxy)-1-benzofuran-2-yl]pyridine-3-carbonitrile] | < 100 |
| COc1ccc(COc2ccc3oc(-c4ccncc4C#N)cc3c2)nc1 [4-{5-[(5-methoxypyridin-2-yl)methoxy]-1-benzofuran-2-yl}pyridine-3-carbonitrile] | < 100 |
| COc1ccc(COc2ccc3oc(N4CC(F)C4)nc3c2)nc1 [2-(3-fluoroazetidin-1-yl)-5-[(5-methoxypyridin-2-yl)methoxy]-1,3-benzoxazole] | 100 to 500 |
| O=C(Nc1ccc2oc(-c3cccnc3)nc2c1)c1cccnc1Oc1ccccc1 [2-phenoxy-N-[2-(pyridin-3-yl)-1,3-benzoxazol-5-yl]pyridine-3-carboxamide] | < 100 |
| COc1ccnc(C(=O)Nc2ccc3oc(-c4cccnc4)nc3c2)c1 [4-methoxy-N-[2-(pyridin-3-yl)-1,3-benzoxazol-5-yl]pyridine-2-carboxamide] | < 100 |
| CN(C)CCOc1ccc(COc2ccc3oc(-c4cccnc4)nc3c2)cc1 [dimethyl({2-[4-({[2-(pyridin-3-yl)-1,3-benzoxazol-5-yl]oxy}methyl)phenoxy]ethyl})amine] | 100 to 500 |
| COc1cnc(N2CCN(c3ccc4oc(-c5cccnc5)nc4c3)CC2)nc1 [5-[4-(5-methoxypyrimidin-2-yl)piperazin-1-yl]-2-(pyridin-3-yl)-1,3-benzoxazole] | < 100 |
| COCCOc1cncc(-c2nc3cc(OCc4ccc(OC)cn4)ccc3o2)c1 [2-[5-(2-methoxyethoxy)pyridin-3-yl]-5-[(5-methoxypyridin-2-yl)methoxy]-1,3-benzoxazole] | < 100 |
| O=C(Nc1ccc2oc(-c3cccnc3)nc2c1)c1cnc(-c2ccccc2)nc1 [2-phenyl-N-[2-(pyridin-3-yl)-1,3-benzoxazol-5-yl]pyrimidine-5-carboxamide] | < 100 |
| CNc1ccc(-c2nc3cc(OCc4ccc(OC)cn4)ccc3o2)cn1 [5-{5-[(5-methoxypyridin-2-yl)methoxy]-1,3-benzoxazol-2-yl}-N-methylpyridin-2-amine] | < 100 |
| COc1ccc(COc2ccc3oc(-n4ccnc4)nc3c2)nc1 [2-(1H-imidazol-1-yl)-5-[(5-methoxypyridin-2-yl)methoxy]-1,3-benzoxazole] | < 100 |
| c1ccc(COc2ccc3oc(-c4cccnc4)nc3c2)nc1 [5-(pyridin-2-ylmethoxy)-2-(pyridin-3-yl)-1,3-benzoxazole] | 100 to 500 |
| COc1cnc(-c2ccc3oc(-c4cccnc4)nc3c2)cn1 [5-(5-methoxypyrazin-2-yl)-2-(pyridin-3-yl)-1,3-benzoxazole] | < 100 |
| COc1cnc(COc2ccc3[nH]c(-c4cccnc4)nc3c2)cn1 [5-[(5-methoxypyrazin-2-yl)methoxy]-2-(pyridin-3-yl)-1H-1,3-benzodiazole] | < 100 |
| COc1ccc(OCc2ccc3oc(-c4cccnc4)nc3c2)nc1 [5-{[(5-methoxypyridin-2-yl)oxy]methyl}-2-(pyridin-3-yl)-1,3-benzoxazole] | < 100 |
| Cn1ccnc1COc1ccc2oc(-c3ccncc3C#N)cc2c1 [4-{5-[(1-methyl-1H-imidazol-2-yl)methoxy]-1-benzofuran-2-yl}pyridine-3-carbonitrile] | 100 to 500 |
| COc1cnc2c(c1)CN(c1ccc3oc(-c4cccnc4)nc3c1)C2=O [3-methoxy-6-[2-(pyridin-3-yl)-1,3-benzoxazol-5-yl]-5H,6H,7H-pyrrolo[3,4-b]pyridin-7-one] | < 100 |
| COc1ccc(COc2ccc3oc(N4CCn5ccnc5C4)nc3c2)nc1 [2-{5H,6H,7H,8H-imidazo[1,2-a]pyrazin-7-yl}-5-[(5-methoxypyridin-2-yl)methoxy]-1,3-benzoxazole] | < 100 |
| COc1ccc(-c2nc3cc(NC(=O)c4cccc(OC)c4)ccc3o2)cc1 [3-methoxy-N-[2-(4-methoxyphenyl)-1,3-benzoxazol-5-yl]benzamide] | < 100 |
| COc1cccc(C(=O)Nc2ccc3oc(-c4cccnc4)nc3c2)n1 [6-methoxy-N-[2-(pyridin-3-yl)-1,3-benzoxazol-5-yl]pyridine-2-carboxamide] | < 100 |

| SMILES | IC50 [nM] |
| --- | --- |
| COc1cc(C(=O)Nc2ccc3oc(-c4cccnc4)nc3c2)on1 [3-methoxy-N-[2-(pyridin-3-yl)-1,3-benzoxazol-5-yl]-1,2-oxazole-5-carboxamide] | < 100 |
| COc1ccc(COc2ccc3oc(-c4ccncc4)cc3c2)nc1 [4-{5-[(5-methoxypyridin-2-yl)methoxy]-1-benzofuran-2-yl}pyridine] | < 100 |
| Cn1cc(-c2nc3cc(OCc4ccc(O)cn4)ccc3o2)cn1 [6-({[2-(1-methyl-1H-pyrazol-4-yl)-1,3-benzoxazol-5-yl]oxy}methyl)pyridin-3-ol] | 100 to 500 |
| N#Cc1cnccc1-c1cc2cc(OCc3cncnc3)ccc2o1 [4-[5-(pyrimidin-5-ylmethoxy)-1-benzofuran-2-yl]pyridine-3-carbonitrile] | < 100 |
| COc1cncc(C(=O)Nc2ccc3oc(-c4ccc(=O)n(C)n4)nc3c2)c1 [5-methoxy-N-[2-(1-methyl-6-oxo-1,6-dihydropyridazin-3-yl)-1,3-benzoxazol-5-yl]pyridine-3-carboxamide] | < 100 |
| N#Cc1cnccc1-c1cc2cc(OCc3cnn(CCO)c3)ccc2o1 [4-(5-{[1-(2-hydroxyethyl)-1H-pyrazol-4-yl]methoxy}-1-benzofuran-2-yl)pyridine-3-carbonitrile] | < 100 |
| COc1ccc(COc2ccc3oc(-c4ccc5ccccc5n4)nc3c2)nc1 [2-{5-[(5-methoxypyridin-2-yl)methoxy]-1,3-benzoxazol-2-yl}quinoline] | < 100 |
| Oc1ccc(COc2ccc3oc(-c4cccnc4)nc3c2)nc1 [6-({[2-(pyridin-3-yl)-1,3-benzoxazol-5-yl]oxy}methyl)pyridin-3-ol] | < 100 |
| COc1ccc(COc2ccc3oc(-c4ccc5occc5c4)nc3c2)nc1 [2-(1-benzofuran-5-yl)-5-[(5-methoxypyridin-2-yl)methoxy]-1,3-benzoxazole] | < 100 |
| Cn1cc(COc2ccc3oc(-c4cnccc4C#N)cc3c2)cn1 [3-{5-[(1-methyl-1H-pyrazol-4-yl)methoxy]-1-benzofuran-2-yl}pyridine-4-carbonitrile] | < 100 |
| COc1ccc(COc2ccc3oc(N4CCn5cncc5C4)nc3c2)nc1 [2-{5H,6H,7H,8H-imidazo[1,5-a]pyrazin-7-yl}-5-[(5-methoxypyridin-2-yl)methoxy]-1,3-benzoxazole] | < 100 |
| Cn1nc(C(=O)Nc2ccc3oc(-c4ccc(=O)n(C)n4)nc3c2)ccc1=O [1-methyl-N-[2-(1-methyl-6-oxo-1,6-dihydropyridazin-3-yl)-1,3-benzoxazol-5-yl]-6-oxo-1,6-dihydropyridazine-3-carboxamide] | < 100 |
| COc1ccc(COc2ccc3oc(-c4cncs4)nc3c2)nc1 [5-[(5-methoxypyridin-2-yl)methoxy]-2-(1,3-thiazol-5-yl)-1,3-benzoxazole] | < 100 |
| COc1ccnc(COc2cnc3oc(-c4cccnc4)nc3c2)c1 [4-methoxy-2-({[2-(pyridin-3-yl)-[1,3]oxazolo[5,4-b]pyridin-6-yl]oxy}methyl)pyridine] | < 100 |
| Brc1ccc(COc2cnc3oc(-c4cccnc4)nc3c2)nc1 [3-{6-[(5-bromopyridin-2-yl)methoxy]-[1,3]oxazolo[5,4-b]pyridin-2-yl}pyridine] | < 100 |
| COc1cnc(COc2ccc3c(c2)nc(-c2cccnc2)n3C)cn1 [5-[(5-methoxypyrazin-2-yl)methoxy]-1-methyl-2-(pyridin-3-yl)-1H-1,3-benzodiazole] | 100 to 500 |
| COc1ccc(COc2cnc3oc(-c4ccc(=O)n(C)n4)nc3c2)nc1 [6-{6-[(5-methoxypyridin-2-yl)methoxy]-[1,3]oxazolo[5,4-b]pyridin-2-yl}-2-methyl-2,3-dihydropyridazin-3-one] | < 100 |
| O=C(Nc1ccc2oc(-c3cccnc3)nc2c1)c1ccc2ccccc2n1 [N-[2-(pyridin-3-yl)-1,3-benzoxazol-5-yl]quinoline-2-carboxamide] | < 100 |
| COc1cncc(COc2cnc3oc(-c4cccnc4)nc3c2)c1 [3-methoxy-5-({[2-(pyridin-3-yl)-[1,3]oxazolo[5,4-b]pyridin-6-yl]oxy}methyl)pyridine] | < 100 |
| CNC(=O)c1ccc(-c2nc3cc(OCc4ccc(OC)cn4)ccc3o2)cn1 [5-{5-[(5-methoxypyridin-2-yl)methoxy]-1,3-benzoxazol-2-yl}-N-methylpyridine-2-carboxamide] | < 100 |
| COc1ncc(-c2ccc3oc(-c4cccnc4)nc3c2)cn1 [5-(2-methoxypyrimidin-5-yl)-2-(pyridin-3-yl)-1,3-benzoxazole] | 100 to 500 |
